pKi: −log10 of the molar value.

The text below walks through data of ChEMBL document CHEMBL2380282, “CROSS: an efficient workflow for reaction-driven rescaffolding and side-chain optimization using robust chemical reactions and available reagents” (J Med Chem, 2013).

In the assay the target is Prothrombin (Homo sapiens, UniProt P00734). The assay can be described thus: Inhibition of thrombin (unknown origin).

`COc1ccc(OC)c(S(=O)(=O)NC2CCCCN(CC(=O)NCc3ccc(C(=N)N)cc3)C2=O)c1` (configuration not stated): the pKi (as a rule, −log10 of the Ki, conventionally taken in molar units) is 8.00. To `N=C(N)c1ccc(CNC(=O)CN2C(=O)C(NS(=O)(=O)c3ccc4c(c3)CCO4)CCc3ccccc32)cc1` (configuration not stated) belongs 7.80.
